Legend:
[1] = tested on: conscious normotensive rats; experiment: Hypotensive activity: blood pressure and heart rate in conscious normotensive rats after oral administration; format: in vivo, rat
Protocol: The effect of the compound on arterial blood pressure (systolic, SBP mean, MBP diastolic, DBP) and heart rate (HR) was evaluated in conscious normotensive rats (NTR). Four to six days before the experiments, a polyethylene catheter for recording arterial blood pressure was surgically implanted into the thoracic aorta via the carotid artery under ether anesthesia. Arterial blood pressure and heart rate were recorded under freely moving conditions. The test compounds were suspended in 0.5% methylcellulose solution and administered by oral gavage.
Table 2 summarizes the changes in HR, SBP, MBP and DBP of conscious NTR after oral administration of the test compounds.

[2] = Acute toxicity in mice, intravenous (Up and Down Method); conditions: mouse, in vivo, i.v., ICR-SLC mice, n=10
Protocol: Acute toxicity of the test compound was evaluated according to the method of Brownlee, Hodges and Rosenblatt (The Up and Down Method with Small Samples. J. Am. Stat. As., 48, 262-277, 1953). The […] value of the test compound after intravenous injection to ICR-SLC mice was obtained (Table 3).

[3] = biological target: [^3 H]-Nitrendipine-labeled calcium channels; experiment: [3H]-nitrendipine binding assay in rat brain membranes (Ca2+-antagonistic activity); conditions: mean of 3 experiments, 95% confidence limits in parenthesis on next line
Protocol: 1. Ca^2+ -Antagonistic activity:
Ca^2+ -Antagonistic activity of the compound was evaluated in [^3 H]-nitrendipine ([^3 H]-NIT) binding assay.

[4] = based on calcium antagonistic activity; cited from earlier work

COC(=O)C1=C(C)NC(C)=C(C(=O)OC)C1c1cc([N+](=O)[O-])ccc1OCCCCNCCCOc1ccccc1 [Example 1, dimethyl 4-[2-[4-(3-phenoxypropylamino)butoxy]-5-nitrophenyl]-2,6-dimethyl-1,4-dihydropyridine-3,5-dicarboxylate]
DBP Change (Δ) ([1]; 30 mg/kg p.o., 1 hr, n=6, initial 103 ± 3.6): -13.0 mmHg
MBP Change (Δ) ([1]; 30 mg/kg p.o., 1 hr, n=6, initial 114 ± 3.6): -12.1 mmHg
SBP Change (Δ) ([1]; 30 mg/kg p.o., 1 hr, n=6, initial 137 ± 3.7): -10.2 mmHg
HR Change (Δ) ([1]; 30 mg/kg p.o., 1 hr, n=6, initial 361 ± 7.7): 43.0 beats/min
DBP Change (Δ) ([1]; 30 mg/kg p.o., 2 hr, n=6, initial 103 ± 3.6): -21.3 mmHg
MBP Change (Δ) ([1]; 30 mg/kg p.o., 2 hr, n=6, initial 114 ± 3.6): -20.0 mmHg
SBP Change (Δ) ([1]; 30 mg/kg p.o., 2 hr, n=6, initial 137 ± 3.7): -17.2 mmHg
HR Change (Δ) ([1]; 30 mg/kg p.o., 2 hr, n=6, initial 361 ± 7.7): 77.8 beats/min
DBP Change (Δ) ([1]; 30 mg/kg p.o., 3 hr, n=6, initial 103 ± 3.6): -25.5 mmHg
MBP Change (Δ) ([1]; 30 mg/kg p.o., 3 hr, n=6, initial 114 ± 3.6): -25.1 mmHg
SBP Change (Δ) ([1]; 30 mg/kg p.o., 3 hr, n=6, initial 137 ± 3.7): -24.3 mmHg
HR Change (Δ) ([1]; 30 mg/kg p.o., 3 hr, n=6, initial 361 ± 7.7): 62.2 beats/min
DBP Change (Δ) ([1]; 30 mg/kg p.o., 4 hr, n=6, initial 103 ± 3.6): -19.0 mmHg
MBP Change (Δ) ([1]; 30 mg/kg p.o., 4 hr, n=6, initial 114 ± 3.6): -18.9 mmHg
SBP Change (Δ) ([1]; 30 mg/kg p.o., 4 hr, n=6, initial 137 ± 3.7): -18.7 mmHg
HR Change (Δ) ([1]; 30 mg/kg p.o., 4 hr, n=6, initial 361 ± 7.7): 55.0 beats/min
DBP Change (Δ) ([1]; 30 mg/kg p.o., 5 hr, n=6, initial 103 ± 3.6): -16.7 mmHg
MBP Change (Δ) ([1]; 30 mg/kg p.o., 5 hr, n=6, initial 114 ± 3.6): -16.5 mmHg
SBP Change (Δ) ([1]; 30 mg/kg p.o., 5 hr, n=6, initial 137 ± 3.7): -16.2 mmHg
HR Change (Δ) ([1]; 30 mg/kg p.o., 5 hr, n=6, initial 361 ± 7.7): 55.3 beats/min
DBP Change (Δ) ([1]; 30 mg/kg p.o., 6 hr, n=6, initial 103 ± 3.6): -13.2 mmHg
MBP Change (Δ) ([1]; 30 mg/kg p.o., 6 hr, n=6, initial 114 ± 3.6): -14.4 mmHg
SBP Change (Δ) ([1]; 30 mg/kg p.o., 6 hr, n=6, initial 137 ± 3.7): -16.8 mmHg
HR Change (Δ) ([1]; 30 mg/kg p.o., 6 hr, n=6, initial 361 ± 7.7): 30.5 beats/min
DBP Change (Δ) ([1]; 30 mg/kg p.o., 8 hr, n=6, initial 103 ± 3.6): -12.5 mmHg
MBP Change (Δ) ([1]; 30 mg/kg p.o., 8 hr, n=6, initial 114 ± 3.6): -13.5 mmHg
SBP Change (Δ) ([1]; 30 mg/kg p.o., 8 hr, n=6, initial 137 ± 3.7): -15.3 mmHg
HR Change (Δ) ([1]; 30 mg/kg p.o., 8 hr, n=6, initial 361 ± 7.7): 33.0 beats/min
DBP Change (Δ) ([1]; 30 mg/kg p.o., 10 hr, n=6, initial 103 ± 3.6): -12.3 mmHg
MBP Change (Δ) ([1]; 30 mg/kg p.o., 10 hr, n=6, initial 114 ± 3.6): -13.1 mmHg
SBP Change (Δ) ([1]; 30 mg/kg p.o., 10 hr, n=6, initial 137 ± 3.7): -14.7 mmHg
HR Change (Δ) ([1]; 30 mg/kg p.o., 10 hr, n=6, initial 361 ± 7.7): 22.5 beats/min
DBP Change (Δ) ([1]; 30 mg/kg p.o., 24 hr, n=6, initial 103 ± 3.6): 0.7 mmHg
MBP Change (Δ) ([1]; 30 mg/kg p.o., 24 hr, n=6, initial 114 ± 3.6): 0.7 mmHg
SBP Change (Δ) ([1]; 30 mg/kg p.o., 24 hr, n=6, initial 137 ± 3.7): 0.7 mmHg
HR Change (Δ) ([1]; 30 mg/kg p.o., 24 hr, n=6, initial 361 ± 7.7): 28.0 beats/min
LD50 [2]: 29 mg/kg
Ki [3]: 0.075 µM

COC(=O)C1=C(C)NC(C)=C(C(=O)OCCN(C)Cc2ccccc2)C1c1cccc([N+](=O)[O-])c1 (centres unmarked) [Nicardipine]
cerebro- and/or coronary vasodilating action [4]: exhibits cerebro- and/or coronary vasodilating action

COC(=O)C1=C(C)NC(C)=C(C(=O)OC)C1c1ccccc1[N+](=O)[O-] [Nifedipine, reference compound]
DBP Change (Δ) ([1]; 3 mg/kg p.o., 0.25 hr, n=8, initial 97 ± 1.8): -20.9 mmHg
MBP Change (Δ) ([1]; 3 mg/kg p.o., 0.25 hr, n=8, initial 110 ± 1.8): -18.7 mmHg
SBP Change (Δ) ([1]; 3 mg/kg p.o., 0.25 hr, n=8, initial 136 ± 2.2): -14.4 mmHg
HR Change (Δ) ([1]; 3 mg/kg p.o., 0.25 hr, n=8, initial 349 ± 6.9): 77.4 beats/min
DBP Change (Δ) ([1]; 3 mg/kg p.o., 0.5 hr, n=8, initial 97 ± 1.8): -19.9 mmHg
MBP Change (Δ) ([1]; 3 mg/kg p.o., 0.5 hr, n=8, initial 110 ± 1.8): -19.1 mmHg
SBP Change (Δ) ([1]; 3 mg/kg p.o., 0.5 hr, n=8, initial 136 ± 2.2): -17.6 mmHg
HR Change (Δ) ([1]; 3 mg/kg p.o., 0.5 hr, n=8, initial 349 ± 6.9): 51.6 beats/min
DBP Change (Δ) ([1]; 3 mg/kg p.o., 0.75 hr, n=8, initial 97 ± 1.8): -20.1 mmHg
MBP Change (Δ) ([1]; 3 mg/kg p.o., 0.75 hr, n=8, initial 110 ± 1.8): -19.5 mmHg
SBP Change (Δ) ([1]; 3 mg/kg p.o., 0.75 hr, n=8, initial 136 ± 2.2): -18.1 mmHg
HR Change (Δ) ([1]; 3 mg/kg p.o., 0.75 hr, n=8, initial 349 ± 6.9): 35.4 beats/min
DBP Change (Δ) ([1]; 3 mg/kg p.o., 1 hr, n=8, initial 97 ± 1.8): -18.9 mmHg
SBP Change (Δ) ([1]; 3 mg/kg p.o., 1 hr, n=8, initial 136 ± 2.2): -17.0 mmHg
HR Change (Δ) ([1]; 3 mg/kg p.o., 1 hr, n=8, initial 349 ± 6.9): 23.0 beats/min
DBP Change (Δ) ([1]; 3 mg/kg p.o., 1.5 hr, n=8, initial 97 ± 1.8): -11.8 mmHg
MBP Change (Δ) ([1]; 3 mg/kg p.o., 1.5 hr, n=8, initial 110 ± 1.8): -11.5 mmHg
SBP Change (Δ) ([1]; 3 mg/kg p.o., 1.5 hr, n=8, initial 136 ± 2.2): -11.0 mmHg
HR Change (Δ) ([1]; 3 mg/kg p.o., 1.5 hr, n=8, initial 349 ± 6.9): 12.9 beats/min
DBP Change (Δ) ([1]; 3 mg/kg p.o., 2 hr, n=8, initial 97 ± 1.8): -9.4 mmHg
MBP Change (Δ) ([1]; 3 mg/kg p.o., 2 hr, n=8, initial 110 ± 1.8): -9.7 mmHg
SBP Change (Δ) ([1]; 3 mg/kg p.o., 2 hr, n=8, initial 136 ± 2.2): -10.4 mmHg
HR Change (Δ) ([1]; 3 mg/kg p.o., 2 hr, n=8, initial 349 ± 6.9): 2.3 beats/min
DBP Change (Δ) ([1]; 3 mg/kg p.o., 3 hr, n=8, initial 97 ± 1.8): -2.6 mmHg
MBP Change (Δ) ([1]; 3 mg/kg p.o., 3 hr, n=8, initial 110 ± 1.8): -3.5 mmHg
SBP Change (Δ) ([1]; 3 mg/kg p.o., 3 hr, n=8, initial 136 ± 2.2): -5.4 mmHg
HR Change (Δ) ([1]; 3 mg/kg p.o., 3 hr, n=8, initial 349 ± 6.9): -20.3 beats/min
DBP Change (Δ) ([1]; 3 mg/kg p.o., 4 hr, n=8, initial 97 ± 1.8): 0.9 mmHg
MBP Change (Δ) ([1]; 3 mg/kg p.o., 4 hr, n=8, initial 110 ± 1.8): 0.5 mmHg
SBP Change (Δ) ([1]; 3 mg/kg p.o., 4 hr, n=8, initial 136 ± 2.2): -0.3 mmHg
HR Change (Δ) ([1]; 3 mg/kg p.o., 4 hr, n=8, initial 349 ± 6.9): -13.4 beats/min
cerebro- and/or coronary vasodilating action [4]: exhibits cerebro- and/or coronary vasodilating action
